Laboratory results taken from patent US10610514B2, “Composition comprising compound inhibiting interactions of MBD2 and P66α for anti-metastasis and prevention and treatment of cancer disease” (Industry-University Cooperation Foundation Hanyang …, priority 2016, dated 2020).
Read-outs that look alike come from different tables or passages of the source.

Assays:
[1] = tested on: target gene expression of the CP2c transcription factor complex; experiment: Luc reporter assay, GATA1 enhancer, 293T cells transduced with CBP complex protein overexpression vectors; format: cell-based
Protocol: Therefore, Luc reporter assay was carried out to analyze whether a decrease in the target gene expression of the CP2c transcription factor complex due to MBD2 or p66α overexpression is restored by the treatment with a compound for inhibiting the interaction between the MBD2 and p66α selected in the previous step (FIGS. 2A and 2B). Here, as a CP2c transcription factor target sequence that controls Luc reporter gene expression, a GATA1 enhancer was used, and 293T cells were transduced with various combinations of CBP complex protein overexpression vectors and then used for analysis.

[2] = tested on: MDA-MB-231, HCT116, MEL and HL60 cell lines; experiment: In vitro cancer cell migration and invasion, Trans-well insert; format: cell-based; settings: 10 μM, in comparison with controls, all cell lines
Protocol: Accordingly, to confirm whether EMT and metastasis are inhibited by the treatment with the compounds of Formulas 1 and 2, in vitro cancer cell migration and invasion abilities were analyzed, and the result is shown in FIGS. 3A and 3B below.

[3] = tested on: HCT116 and MDA-MB-231 cell lines; experiment: Western blotting of EMT-associated marker proteins; format: cell-based; settings: 10 μM, 48 hours
Excerpt: Therefore, the compounds of Formulas 1 and 2 according to the present invention may be excellent leading materials in the development of therapeutic agents for metastasis.

[4] = tested on: leukemia cell lines (KCL22, MEL, THP-1, HL60, HEL, U937, KG-1, and K562); experiment: MTT assay cell viability, leukemia cell lines; format: cell-based
Protocol: (§1) Lymphoid leukemia cell lines (Raji, Molt4, IM9, Jurkat, CCRF-CEM, and Daudi), leukemia cell lines (KCL22, MEL, THP-1, HL60, HEL, U937, KG-1, and K562), and solid tumor cell lines (HCT116 colorectal cancer cell line, BEAS2B lung epithelial cell line, 293T fetus kidney epithelial cell line, Hep3B liver cancer cell line, MCF7 and MDA-MB-231 breast cancer cell lines, MCF10A breast epithelial cell line, and U373MG brain tumor cell line) were treated with a compound at different concentrations (0, 1, 10, 100, 1,000, and 10,000 μM), cultured for 4 days, and subjected to MTT assay every 24 hours to measure cell viability. 48 hours after the treatment with the compound, a morphological change of the cells was observed, and cell images were taken. IC50 values caused by the treatment with each compound were calculated using the Graph Prism Pad 6 program.

[5] = tested on: lymphoid leukemia cell lines (Raji, Molt4, IM9, Jurkat, CCRF-CEM, and Daudi); experiment: MTT assay cell viability, lymphoid leukemia cell lines; format: cell-based; settings: average
Protocol: as §1

[6] = tested on: solid tumor cell lines (HCT116, BEAS2B, 293T, Hep3B, MCF7, MDA-MB-231, MCF10A, U373MG); experiment: MTT assay cell viability, solid tumor cell lines; format: cell-based; settings: average
Protocol: as §1

[7] = tested on: MEL cell line; experiment: Leukemia cell line-implanted animal model (MEL cell line intravenously injected into immunodeficient mice); format: in vivo
Excerpt: The result is shown in FIGS. 9A, 9B, 9C, 9D, 9E, 9F, 9G, 9H, 9I and 9J below.
However, a white blood cell level was reduced due to the treatment with the compound at a slightly higher concentration, but the histological characteristics of the major organs as well as the overall hematological characteristics were normal (FIGS. 9D and 9E).
Meanwhile, to confirm whether the compound of Formula 1 can treat tumors generated in the animal models, the MEL cell line was intravenously injected, after 7 days, the compound of Formula 1 was intravenously injected five times at intervals of three days, and then, on the 21th day, the mice were sacrificed to be subjected to analysis by the above-described method (FIG. 9F).

[8] = tested on: MEL cell line; experiment: Cell cycle analysis by FACS and karyotype analysis of MEL cells; format: cell-based, murine
[9] = tested on: MEL cells; experiment: Western blotting of cell cycle- and apoptosis-associated marker proteins in MEL cells; format: cell-based, murine
Excerpt: In addition, as a western blotting result to show the change in the expression of cell cycle-associated marker proteins according to the concentration and time of the treated compound of Formula 1, it was confirmed that all activities of cyclin/CDK controlling the checkpoints of the cell cycle were decreased. Therefore, referring to FIG. 13, it was seen that overall progression of the cell cycle was inhibited by the treatment with the compound of Formula 1, and aneuploidy and cell death were induced.

[10] = tested on: various cancer cell lines; experiment: MTT assay cell viability, all cancer cell lines; format: cell-based
Protocol: as §1

[11] = dosing started 7 days after MEL injection, day 21
[12] = 16.5 μM and 40 μM, western blotting over time

## NCC(=O)NC[C@H]1COc2ccccc2O1 [Formula 1]
[1]
  restoration of the inhibition of target gene expression by MBD2 overexpression: did not restore
  restoration of the inhibition of target gene expression by p66α overexpression: restored
[2]
  effect on migration and invasion abilities: significant inhibitory effect
[3]
  expression of epithelial cell marker proteins (β-catenin, E-cadherin): decreased
  expression of mesenchymal cell marker proteins (Snail, slug, N-cadherin): significantly decreased
[4]; average, read-out: IC50 average
  IC50: 50 µM
[4]; range over cell lines, read-out: IC50 values
  IC50: 6 to 218 µM
[5]
  IC50: 213 µM
[6]
  IC50: 1780 µM
[7]; MEL-implanted mice
  side effects in normal tissue/blood: no side effects
[7]; dosing from MEL injection, day 16
  histological characteristics of the major organs and overall hematological characteristics: normal
[7]; [11]
  histological characteristics of the major organs and overall hematological characteristics: normal
  tumor cells in the blood, spleen and liver: no tumor cells
[7]; dosing started 7 days after MEL injection, i.v. five times at intervals of three days, day 21, concentration-dependent
  splenomegaly caused by the MEL cells: disappeared
[7]; i.v. 12.2, 24.4, 48.8 μg/Kg five times at intervals of three days from MEL injection, day 16, concentration-dependent
  splenomegaly caused by the MEL cells: disappeared
[7]; i.v. five times at intervals of three days from MEL injection, day 16
  tumor cells in the blood, spleen and liver: no tumor cells
[7]; slightly higher concentration, day 16
  white blood cell level: reduced
[8]; FACS
  G0/G1 group: reduction
  G2/M group: increase
  aneuploidy cell group: significant increases
  subG1 (cell group dying by apoptosis): significant increases
[8]; FACS after synchronization at G1/S by thymidine double block
  aneuploidy: remarkably induced
[8]; karyotype analysis
  chromosomes (karyotype analysis): abnormally increased
[9]; [12]
  apoptosis-associated caspases: activated
  expression of the apoptosis inhibition marker: decreased
  expression of the apoptosis promotion marker: increased
[9]; western blotting, by concentration and time
  activities of cyclin/CDK controlling the checkpoints of the cell cycle: decreased

## CC(C)(C)OC(=O)N1CC[C@@H](CC(=O)CN)C1 [Formula 2]
[1]
  restoration of the inhibition of target gene expression by MBD2 overexpression: restored
  restoration of the inhibition of target gene expression by p66α overexpression: did not restore
[2]
  effect on migration and invasion abilities: significant inhibitory effect
[3]
  expression of epithelial cell marker proteins (β-catenin, E-cadherin): decreased
  expression of mesenchymal cell marker proteins (Snail, slug, N-cadherin): significantly decreased
[10]; uniform in all cancer cell lines
  IC50 values (in words): slightly higher IC50 values
[10]; various cancer cell lines
  growth and cell death of cell lines: effects of inhibiting the growth and inducing cell death
